Activity calls are given as the source filed them. For most assays here, no stated cut-off is given here; in the data, actives have a measured IC50 and inactives only a lower limit.

The target of assay [1] is T1, Apoptotic protease-activating factor 1 (Homo sapiens, UniProt O14727).
T1 sequence (O14727 whole entry): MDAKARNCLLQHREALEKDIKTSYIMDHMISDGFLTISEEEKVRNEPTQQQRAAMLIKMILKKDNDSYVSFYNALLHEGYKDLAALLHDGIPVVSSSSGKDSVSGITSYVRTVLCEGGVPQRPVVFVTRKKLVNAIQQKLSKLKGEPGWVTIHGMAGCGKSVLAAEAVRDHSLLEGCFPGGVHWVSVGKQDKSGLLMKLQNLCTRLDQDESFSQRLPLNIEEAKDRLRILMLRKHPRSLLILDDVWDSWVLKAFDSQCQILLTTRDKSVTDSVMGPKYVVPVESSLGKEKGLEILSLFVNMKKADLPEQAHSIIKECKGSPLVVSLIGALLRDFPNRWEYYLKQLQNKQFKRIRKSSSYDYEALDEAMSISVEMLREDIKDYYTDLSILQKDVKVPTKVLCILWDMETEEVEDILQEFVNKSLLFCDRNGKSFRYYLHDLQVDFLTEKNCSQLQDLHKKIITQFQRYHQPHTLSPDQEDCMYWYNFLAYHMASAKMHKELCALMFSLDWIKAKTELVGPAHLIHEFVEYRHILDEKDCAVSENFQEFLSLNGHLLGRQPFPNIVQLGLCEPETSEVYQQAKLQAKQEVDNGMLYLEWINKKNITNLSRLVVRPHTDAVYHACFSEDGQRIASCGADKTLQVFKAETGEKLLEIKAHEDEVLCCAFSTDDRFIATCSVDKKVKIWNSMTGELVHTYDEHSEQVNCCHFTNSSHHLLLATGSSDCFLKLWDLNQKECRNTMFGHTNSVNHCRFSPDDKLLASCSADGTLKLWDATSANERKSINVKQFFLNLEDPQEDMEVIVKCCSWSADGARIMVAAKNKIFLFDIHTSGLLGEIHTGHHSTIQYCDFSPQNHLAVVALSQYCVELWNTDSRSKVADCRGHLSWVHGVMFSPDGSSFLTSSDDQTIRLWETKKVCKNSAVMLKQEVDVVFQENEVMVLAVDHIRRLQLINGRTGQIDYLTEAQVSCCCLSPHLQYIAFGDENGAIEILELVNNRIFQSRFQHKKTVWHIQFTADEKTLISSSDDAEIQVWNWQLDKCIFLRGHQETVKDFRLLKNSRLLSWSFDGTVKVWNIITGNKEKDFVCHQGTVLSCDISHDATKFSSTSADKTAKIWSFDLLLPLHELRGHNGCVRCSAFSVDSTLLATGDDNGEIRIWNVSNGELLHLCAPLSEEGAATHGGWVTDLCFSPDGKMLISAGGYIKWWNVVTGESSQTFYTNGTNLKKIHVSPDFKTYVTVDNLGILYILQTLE
It is filed as functional.

The next assay deals with T2, Protein RecA (Mycobacterium tuberculosis, UniProt P9WHJ3).
T2 sequence (P9WHJ3 whole entry): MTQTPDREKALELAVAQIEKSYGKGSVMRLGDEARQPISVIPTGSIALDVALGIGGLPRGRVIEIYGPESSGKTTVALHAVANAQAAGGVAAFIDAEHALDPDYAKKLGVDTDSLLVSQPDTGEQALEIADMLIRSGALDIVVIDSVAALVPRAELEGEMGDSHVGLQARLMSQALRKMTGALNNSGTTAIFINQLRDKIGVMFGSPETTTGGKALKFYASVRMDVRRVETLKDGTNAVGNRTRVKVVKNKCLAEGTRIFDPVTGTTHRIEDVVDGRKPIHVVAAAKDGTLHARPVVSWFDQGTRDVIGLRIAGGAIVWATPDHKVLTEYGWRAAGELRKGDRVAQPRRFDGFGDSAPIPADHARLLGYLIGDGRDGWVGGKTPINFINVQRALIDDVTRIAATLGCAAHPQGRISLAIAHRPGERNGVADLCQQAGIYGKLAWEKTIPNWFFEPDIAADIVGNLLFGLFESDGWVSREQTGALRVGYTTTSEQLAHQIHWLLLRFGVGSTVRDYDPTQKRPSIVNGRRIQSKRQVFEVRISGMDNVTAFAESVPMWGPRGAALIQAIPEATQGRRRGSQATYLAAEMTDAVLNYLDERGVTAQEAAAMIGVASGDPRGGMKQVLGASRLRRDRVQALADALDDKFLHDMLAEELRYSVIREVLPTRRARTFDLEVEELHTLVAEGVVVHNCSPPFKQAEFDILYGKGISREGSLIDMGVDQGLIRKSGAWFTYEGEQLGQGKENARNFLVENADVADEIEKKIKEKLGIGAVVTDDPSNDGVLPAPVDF
In words: Fluorescence Cell-Free Homogeneous Dose Retest to Identify Inhibitors of RecA-Intein Splicing Activity. [Related pubchem assays (depositor defined):AID2097, AID2223, AID489010, AID492950]. Format: functional.

Assay [2] deals with T3, SUMO-activating enzyme (Homo sapiens, UniProt Q9UBT2). Nature of the assay: SUMOylation inhibitor hit validation, confirmation, SUMOylation inhibitor project, biochemical, AlphaScreen (AID 2018). It is filed as functional.
T3 sequence (Q9UBE0 whole entry): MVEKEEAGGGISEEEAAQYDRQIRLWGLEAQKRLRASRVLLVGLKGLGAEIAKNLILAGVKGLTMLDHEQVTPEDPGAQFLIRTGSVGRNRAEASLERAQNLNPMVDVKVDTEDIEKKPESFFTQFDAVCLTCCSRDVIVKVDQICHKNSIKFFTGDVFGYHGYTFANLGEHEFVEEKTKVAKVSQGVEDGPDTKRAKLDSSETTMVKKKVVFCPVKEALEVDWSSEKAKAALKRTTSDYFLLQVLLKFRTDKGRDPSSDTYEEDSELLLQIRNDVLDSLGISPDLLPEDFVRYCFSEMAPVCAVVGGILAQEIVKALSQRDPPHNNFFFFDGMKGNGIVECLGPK
T3 sequence (Q9UBT2 whole entry): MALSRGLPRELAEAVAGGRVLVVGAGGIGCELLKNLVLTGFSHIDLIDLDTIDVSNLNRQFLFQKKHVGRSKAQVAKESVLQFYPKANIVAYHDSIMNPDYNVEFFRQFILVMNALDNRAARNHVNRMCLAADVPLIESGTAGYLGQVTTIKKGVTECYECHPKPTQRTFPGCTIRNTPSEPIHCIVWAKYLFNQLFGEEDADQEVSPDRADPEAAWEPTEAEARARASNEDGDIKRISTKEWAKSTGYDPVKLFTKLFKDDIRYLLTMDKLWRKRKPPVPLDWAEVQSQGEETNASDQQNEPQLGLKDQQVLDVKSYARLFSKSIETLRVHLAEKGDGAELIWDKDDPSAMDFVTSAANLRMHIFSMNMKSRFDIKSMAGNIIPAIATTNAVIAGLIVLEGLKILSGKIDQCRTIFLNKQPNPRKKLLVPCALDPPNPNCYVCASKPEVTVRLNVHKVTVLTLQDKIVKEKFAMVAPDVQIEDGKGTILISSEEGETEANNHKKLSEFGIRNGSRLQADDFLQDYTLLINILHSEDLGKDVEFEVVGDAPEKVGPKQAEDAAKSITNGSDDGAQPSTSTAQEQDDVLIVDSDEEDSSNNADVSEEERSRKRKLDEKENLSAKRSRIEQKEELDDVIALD
The target of assay [3] is T3, SUMO-activating enzyme. In words: inhibitors of in vitro SUMOylation cascade, primary screen, biochemical, HTRF, uHTS (AID 2006). It is filed as protein-complex assay.
The target of assay [4] is T4, Replicative DNA helicase DnaB (Mycobacterium tuberculosis, UniProt P9WMR3).
T4 sequence (P9WMR3 whole entry): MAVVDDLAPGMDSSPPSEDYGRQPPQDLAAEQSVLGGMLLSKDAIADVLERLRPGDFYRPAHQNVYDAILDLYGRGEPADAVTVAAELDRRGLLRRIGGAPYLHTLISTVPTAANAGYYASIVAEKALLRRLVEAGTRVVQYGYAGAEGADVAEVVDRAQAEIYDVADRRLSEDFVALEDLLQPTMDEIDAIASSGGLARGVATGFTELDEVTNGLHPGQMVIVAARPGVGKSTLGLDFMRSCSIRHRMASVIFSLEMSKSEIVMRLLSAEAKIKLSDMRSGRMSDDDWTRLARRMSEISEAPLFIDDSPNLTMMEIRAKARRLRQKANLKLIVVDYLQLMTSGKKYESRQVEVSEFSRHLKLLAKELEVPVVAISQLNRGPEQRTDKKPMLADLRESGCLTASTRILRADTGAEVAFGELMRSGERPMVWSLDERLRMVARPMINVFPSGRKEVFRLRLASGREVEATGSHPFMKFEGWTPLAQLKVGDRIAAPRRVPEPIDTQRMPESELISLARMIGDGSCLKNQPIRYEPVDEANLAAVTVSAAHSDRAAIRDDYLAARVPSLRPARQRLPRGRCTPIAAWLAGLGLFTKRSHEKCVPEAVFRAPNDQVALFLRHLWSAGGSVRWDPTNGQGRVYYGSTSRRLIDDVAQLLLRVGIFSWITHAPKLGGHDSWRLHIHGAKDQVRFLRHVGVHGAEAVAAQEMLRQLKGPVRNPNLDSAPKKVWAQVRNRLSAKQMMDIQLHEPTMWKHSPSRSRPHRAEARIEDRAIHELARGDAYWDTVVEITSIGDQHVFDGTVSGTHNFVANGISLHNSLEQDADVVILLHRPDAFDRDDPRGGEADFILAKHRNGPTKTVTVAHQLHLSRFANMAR
Nature of the assay: DnaB intein splicing inhibitors, dose response, biochemical, cell-free fluorescence (AID 449749). It is filed as functional.

On to `Nc1c(N2CCCC2)cc(Cl)c2nonc12`, for which the IC50 in assay [1] was 11 µM (active); at SUMO-activating enzyme [2], 2.16 µM (active); at SUMO-activating enzyme [3], 5.6 µM (active). Besides, the concentration for a half-maximal effect (EC50) at Protein RecA is 1.65 µM (active). For the same compound, the AC50 in assay [4] was 8.9 µM (active).
For `O=C(NNc1cc(N2CCOCC2)nc(N2CCOCC2)n1)c1ccc([N+](=O)[O-])cc1`, the IC50 in assay [1] is 13.6 µM (active); at SUMO-activating enzyme [2] it was 6.57 µM (active); on SUMO-activating enzyme [3], 15.8 µM (active).
On to `Oc1ccc(/N=C/c2ccc(OCc3ccccc3)cc2)cc1`, for which the EC50 on Protein RecA is > 380 µM (inactive). Further, the AC50 in assay [4] was > 380 µM (inactive).

Values taken from ChEMBL document CHEMBL1201862, “PubChem BioAssay data set” (2004).
